Reference: patent publication US20210214385A1, “INHIBITORS OF D-AMINO ACID OXIDASE AND USES THEREOF” (SyneuRx International (Taiwan) Corp., priority 2018, published 2021)

Key:
[1] = in vivo; conditions: C57BL/6J, mouse, po
[2] = Concentration in mouse brain after i.p. administration, HPLC-MS after tannase hydrolysis into gallic acid; assay type: in vivo, mice
Experimental: The objective of this experiment was to compare the concentration of Compound 24 and enriched tannic acid in mouse brain after intraperitoneal (i.p.) administration. The enriched tannic acid was prepared by the enrichment method 10 of U.S. Ser. No. 10/105,378. C57BL/6J mice at 14 weeks of age were divided into two groups with 3 mice each. The mice in group I and II were, respectively, i.p. injected with Compound 24 at 30 mg/kg and enriched tannic acid at 15 mg/kg once every two days for three months. The brain sample was collected from each animal at 24 hours after the final i.p. administration and immediately frozen and stored at −70° C. until further use.
The amounts of Compound 24 and enriched tannic acid in mice brain were analyzed by high performance liquid chromatography-mass spectrometry (HPLC-MS) after enzymatic hydrolysis into gallic acid. Each frozen brain sample was homogenized with 4-fold volume of deionized water (ddH2O) using a handheld tissue homogenizer (BT Lab Systems). […]
Chromatographic analysis was performed using a Phenomenex Kinetex C8 column (150×4.6 mm, 5 μm). […] Quantitation was done using the selected-ion monitoring chromatogram (SIM) mode to monitor the precursor ion of m/z 169 for gallic acid and m/z 137 for 4-hydroxybenzoic acid as an internal standard. […]

[3] = biological target: human D-amino acid oxidase (hDAAO) (Homo sapiens, UniProt P14920); assay: In vitro measurement of human D-amino acid oxidase (hDAAO) activity, D-Serine substrate, Amplex Red fluorescence; assay type: biochemical
human D-amino acid oxidase (hDAAO), sequence (P14920 whole entry): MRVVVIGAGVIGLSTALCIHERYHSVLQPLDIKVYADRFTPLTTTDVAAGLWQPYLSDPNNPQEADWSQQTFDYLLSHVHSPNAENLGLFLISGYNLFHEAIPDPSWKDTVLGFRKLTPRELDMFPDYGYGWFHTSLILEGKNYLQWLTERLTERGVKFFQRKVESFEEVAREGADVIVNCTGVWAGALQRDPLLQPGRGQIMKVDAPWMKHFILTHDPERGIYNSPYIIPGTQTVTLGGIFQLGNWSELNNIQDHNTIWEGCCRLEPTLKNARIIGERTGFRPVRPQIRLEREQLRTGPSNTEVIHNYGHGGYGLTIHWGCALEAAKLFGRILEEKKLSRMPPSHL

[4] = tested on: MK-801 treated mice; assay: Pre-pulse inhibition in MK-801 treated mice; assay type: in vivo; conditions: 30 mg/kg oral, MK-801 0.3 mg/kg i.p., male mice
Experimental: C57BL/6J male mice were group housed under the same condition as described in Example 1. Mice were randomly assigned into three groups, Group 1: vehicle control, Group 2: MK-801, Group 3: Cpd 24 (30 mg/kg)+MK-801. Mice in Group 2-3 received an acute intraperitoneal (i.p.) injection of MK-801 (Sigma-Aldrich USA), a NMDA receptor antagonist, dissolved in normal saline, at 0.3 mg/kg 20 minutes prior to the pre-pulse inhibition test. Each mouse in Group 1-2 and Group 3 received, respectively, an acute oral administration of 65% PEG400 in ddH2O and compound 24 at 30 mg/kg (dissolved with 65% PEG400 in ddH2O) 20 minutes prior to the MK-801 administration.
Pre-pulse inhibition, using SR-LAB startle apparatus (San Diego Instruments, San Diego, Calif., USA), was used to determine the efficacy of compound 24 on attenuating the MK-801 induced deficit of sensorimotor gating function in mice. Under 65 dB background noise, each session was composed of 5-minutes accumulation period followed by 64 trials in four blocks. The pulse alone (PA) trial was a 40 ms, 120 dB white noise burst. In the prepulse (pp)+pulse trials, a 20 ms white noise prepulse stimuli of 71 dB (pp6), 75 dB (pp10), and 83 dB (pp18) were presented 100 ms before a 40 ms 120 dB pulse. The non-stimulus (NS) trials presented the background noise only. The initial and the last blocks were composed of six PA trials, respectively. Two middle blocks consisted of PA, pp+pulse, and NS trials. These trials were presented pseudo-randomly and separated by intertribal intervals of 15 seconds on average (varying between 10 to 20 s). The percentage of prepulse inhibition was evaluated by the following formula: % PPI=100× [(PA score)−(pp-P score)]/(PA score), where the PA score was the average of the PA value in the middle blocks.

[5] = Log P, n-octanol/water partition coefficient, HPLC; assay type: physicochemical
Experimental: The sample compounds tested in the log P experiments included enriched tannic acid (prepared by the enrichment method 10 of U.S. Ser. No. 10/105,378), compounds 21, 24, 27, 46, and 56. First, n-Octanol and water was saturated with each other to achieve partition equilibrium and the two phases were separated for further use. Sample compounds were dissolved in water and n-octanol phase, respectively. Both phases were mixed by vertical rotation movement. After the water and n-octal phases reached equilibrium state, both phases were analyzed to determine the concentrations of the sample compounds for the determination of log P values. All samples were performed in a Shimadzu CBM-20A FfPLC system. The chromatographic separation was carried out on a 5 μm, Kinetex C18 100 Å LC column (100×4.6 mm). The mobile phase was 0.1% formic acid in water and acetonitrile/Methanol set as gradient. Flow rate used was 1.2 mL/min. Column was at room temperature 20±5° C.
The partition coefficient abbreviated P is calculated based on the concentration in n-octanol divided by the concentration in water. The formula of log P is shown below: […]

O=C(OC[C@H]1O[C@H](OC(=O)c2cc(O)c(O)c(OC(=O)c3cc(O)c(O)c(OC(=O)c4cc(O)c(O)c(O)c4)c3)c2)[C@H](OC(=O)c2cc(O)c(O)c(OC(=O)c3cc(O)c(O)c(OC(=O)c4cc(O)c(O)c(O)c4)c3)c2)[C@@H](OC(=O)c2cc(O)c(O)c(OC(=O)c3cc(O)c(O)c(OC(=O)c4cc(O)c(O)c(O)c4)c3)c2)[C@@H]1OC(=O)c1cc(O)c(O)c(OC(=O)c2cc(O)c(O)c(OC(=O)c3cc(O)c(O)c(O)c3)c2)c1)c1cc(O)c(O)c(OC(=O)c2cc(O)c(O)c(OC(=O)c3cc(O)c(O)c(O)c3)c2)c1 [Compound 24, (2R,3R,4S,5R,6R)-6-(((3-((3,4-dihydroxy-5-((3,4,5-trihydroxybenzoyl)oxy)benzoyl)oxy)-4,5-dihydroxybenzoyl)oxy)methyl)tetrahydro-2H-pyran-2,3,4,5-tetrayl tetrakis(3-((3,4-dihydroxy-5-((3,4,5-trihydroxybenzoyl)oxy)benzoyl)oxy)-4,5-dihydroxybenzoate)]
MTD at 7 day [1]: 4500 mg/kg
Concentration (amount per g brain tissue) ([2]; 30 mg/kg i.p. once every two days for three months, 24 hours after final dose): 2714.19 ng/g
brain concentration relative to enriched tannic acid ([2]; compound 24 at 30 mg/kg vs enriched tannic acid at 15 mg/kg i.p.): more than 9 times
IC50 [3]: 13 nM
pre-pulse inhibition percentage ([4]; 71 dB pre-pulse intensity): moderately increased the inhibition percentage
MK-801 induced pre-pulse inhibition deficit ([4]; 75 dB pre-pulse intensity): significantly improved
pre-pulse inhibition percentage ([4]; 83 dB pre-pulse intensity): moderately increased the inhibition percentage
logP [5]: 0.58
